Assay results from patent US11332716B2, “Methods and compositions for producing pancreatic beta cells” (The Regents of the University of California, priority 2015, dated 2022).

What was measured:
ALK = ALK (Homo sapiens, UniProt Q9UM73); details: at 1 nM; cited from earlier work
LTK = LTK (Homo sapiens, UniProt P29376); details: at 1 nM; cited from earlier work
Axl = target: T1, Axl (Homo sapiens, UniProt P30530); details: at 1 nM; cited from earlier work
T1 sequence (P30530 26-894): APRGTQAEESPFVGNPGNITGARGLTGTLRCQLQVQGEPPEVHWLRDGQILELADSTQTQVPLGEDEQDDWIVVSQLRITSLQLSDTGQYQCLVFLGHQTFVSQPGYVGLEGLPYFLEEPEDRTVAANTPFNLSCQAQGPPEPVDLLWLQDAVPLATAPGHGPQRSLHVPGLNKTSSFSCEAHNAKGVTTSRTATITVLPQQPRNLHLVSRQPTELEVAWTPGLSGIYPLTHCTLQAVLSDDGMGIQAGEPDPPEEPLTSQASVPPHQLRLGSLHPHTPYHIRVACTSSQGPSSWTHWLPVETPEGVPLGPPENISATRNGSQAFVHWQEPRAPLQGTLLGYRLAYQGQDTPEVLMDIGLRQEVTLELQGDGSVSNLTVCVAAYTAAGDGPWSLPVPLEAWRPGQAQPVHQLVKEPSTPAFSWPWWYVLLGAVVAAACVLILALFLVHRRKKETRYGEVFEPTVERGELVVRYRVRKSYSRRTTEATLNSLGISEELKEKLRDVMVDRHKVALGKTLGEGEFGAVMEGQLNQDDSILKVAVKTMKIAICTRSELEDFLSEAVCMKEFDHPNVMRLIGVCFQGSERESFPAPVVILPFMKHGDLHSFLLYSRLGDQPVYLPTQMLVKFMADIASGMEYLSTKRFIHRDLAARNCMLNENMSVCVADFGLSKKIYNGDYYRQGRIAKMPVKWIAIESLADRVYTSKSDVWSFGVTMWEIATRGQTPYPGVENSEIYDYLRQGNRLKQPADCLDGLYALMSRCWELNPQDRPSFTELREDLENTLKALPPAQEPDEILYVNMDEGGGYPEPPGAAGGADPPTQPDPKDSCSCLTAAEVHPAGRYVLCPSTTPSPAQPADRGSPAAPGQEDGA

Flt3 = target: T2, Flt3 (Homo sapiens, UniProt P36888); details: at 1 nM; cited from earlier work
T2 sequence (P36888 27-993): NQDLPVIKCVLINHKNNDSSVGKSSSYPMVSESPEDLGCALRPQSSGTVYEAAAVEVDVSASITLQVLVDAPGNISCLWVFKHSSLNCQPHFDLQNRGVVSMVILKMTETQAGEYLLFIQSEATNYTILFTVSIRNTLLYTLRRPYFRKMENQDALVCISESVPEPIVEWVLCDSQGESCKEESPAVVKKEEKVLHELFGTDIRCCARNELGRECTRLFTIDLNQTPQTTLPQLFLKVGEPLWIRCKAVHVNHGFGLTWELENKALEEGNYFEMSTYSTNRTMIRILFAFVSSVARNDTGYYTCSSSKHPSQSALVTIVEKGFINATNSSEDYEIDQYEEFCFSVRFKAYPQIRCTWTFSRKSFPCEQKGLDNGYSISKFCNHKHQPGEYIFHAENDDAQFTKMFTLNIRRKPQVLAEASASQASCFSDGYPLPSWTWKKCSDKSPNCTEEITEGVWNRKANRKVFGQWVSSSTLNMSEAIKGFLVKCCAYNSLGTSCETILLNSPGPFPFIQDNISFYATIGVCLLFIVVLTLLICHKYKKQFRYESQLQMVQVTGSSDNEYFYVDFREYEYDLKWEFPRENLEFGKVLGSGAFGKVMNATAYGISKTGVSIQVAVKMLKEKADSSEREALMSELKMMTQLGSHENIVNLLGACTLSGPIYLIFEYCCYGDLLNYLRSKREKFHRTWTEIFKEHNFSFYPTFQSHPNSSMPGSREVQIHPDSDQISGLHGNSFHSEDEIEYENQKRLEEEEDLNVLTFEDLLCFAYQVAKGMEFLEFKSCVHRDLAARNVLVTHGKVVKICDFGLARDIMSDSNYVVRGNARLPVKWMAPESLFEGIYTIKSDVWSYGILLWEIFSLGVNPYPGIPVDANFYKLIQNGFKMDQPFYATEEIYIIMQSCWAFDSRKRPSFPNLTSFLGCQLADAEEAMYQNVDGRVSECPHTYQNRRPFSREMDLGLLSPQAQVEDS

[1] = test system: pancreatic endodermal progenitor cells (cPE cells); experiment: Maturation of cPE cells into C-peptide positive cells, chemical screen; details: added individually to basal pancreatic differentiation media
[2] = test system: pancreatic endodermal progenitor (cPE) cells; experiment: Protocol 2 maturation of cPE cells into cPB cells (INSULIN mRNA, C-peptide cells)
[3] = test system: MEL1 INS GFP/W hESC spheres; experiment: hESC suspension differentiation, qPCR of NGN3 and NKX2.2 at day 8; type: cell-based, human; details: compared to RCN condition / during RCN or R treatment
Procedure: FIGS. 16A-16D. Published protocols result in precocious endocrine differentiation by NEUROG3 activation. FIGS. 16A-C: Analysis of key pancreatic progenitor markers in clusters differentiated as outlined in FIG. 15A. R=Retinoic acid, C=Cyclopamine, N=Noggin, E=Epidermal growth factor, K=Keratinocyte growth factor, T=TBP, and A=ALK inhibitor. Data shown are representative of two independent experiments. FIG. 16A: PDX1, INS, GCG, NEUROG3, and NKX6.1 protein expression was assessed by whole mount staining of differentiated clusters at indicated time points. Note precocious expression of the endocrine marker NEUROG3 in the absence of NKX6.1 protein at days 6-9. FIGS. 16B and 16C: Flow cytometric quantification of PDX1^+ (orange gate), PDX1^+/NKX6.1^+ (blue gate), INS^+/NKX6.1^+ (green gate), and INS^+/NKX6.1^− (red gate) cells at indicated time points. […]
Total RNA was isolated with TRIZOL (Sigma) or micro/mini RNAeasy kit (Qiagen) and reverse transcribed using the iScript cDNA Kit (Bio-Rad) according to manufacturer's instructions. qPCR analysis was performed on an ABI 7900 HT Fast Real-Time PCR System (Applied Biosystems) and CFX Connect Real Time System (Biorad) using standard protocols. […] P-values were calculated using a two-tailed student's t-test. […]

[4] = test system: MEL1 INS GFP/W hESC spheres; experiment: hESC suspension differentiation, flow cytometry of PDX1 and NKX6.1; type: cell-based, human; details: alone, conditions 2 and 3; day 9.5
Excerpt: Treatments consisted of combinations of Cyclopamine (C), Noggin (N), and retinoic acid (R) during days 6-8, followed by subdivision of each condition into three treatment groups during day 9-9.5. Group 1) continuation of day 6-8 treatment; Group 2) treatment with EGF and KGF (EK); Group 3) treatment with EGF, KGF, and Noggin (EKN). […] Data shown are representatives of results obtained in two independent experiments. […] FIG. 17B: Quantification of PDX1 (orange gate) and NKX6.1 (blue gate) protein expressing cells in individual conditions after 9.5 days of differentiation.
Suspension-based differentiations were carried out as follows. Briefly, confluent cultures were dissociated into single cell suspension by incubation with TrypLE (Gibco). […] To induce definitive endoderm differentiation, aggregates were collected 24 hours later in a 50 ml falcon tube, allowed to settle by gravity, washed once with PBS and re-suspended in d1 media (RPMI (Gibco) containing 0.2% FBS, 1:5000 ITS (Gibco), 100 ng/ml Activin A, and 50 ng/ml WNT3a (R&D systems)). Clusters from 3 wells were combined into 2 wells at this point and distributed into fresh low-attachment plates in 5.5 ml d1 media. Media thereafter was changed daily, by removing either 4.5 ml media (at the end of d1) or 5.5 ml media the following days and adding back 5.5 ml fresh media until day 9. After day 9, only 5 ml of media was removed and added daily.
Briefly, spheres were collected and allowed to settle by gravity. Clusters were washed once in PBS and dissociated by gentle pipetting after 12-15 minutes incubation in Accumax (Innovative Cell Technologies). For sorting, cell suspensions were filtered and re-suspended in FACS buffer consisting of phosphate-buffered saline (PBS) (UCSF cell culture facility) containing 2 mM EDTA (Ambion) and 1% BSA (Sigma). Dead cells were excluded by DAPI (Sigma) staining Cell sorting was performed on a FACS Aria II (BD Bioscience). […]

[5] = test system: MEL1 INS GFP/W hESC spheres; experiment: hESC suspension differentiation, NEUROG3 immunofluorescence; type: cell-based, human; details: days 6-9.5
Procedure: Undifferentiated MEL1 INS^GFP/W reporter cells (Micallef et al, 2012) were maintained on mouse embryo fibroblast feeder layers (Millipore) in hESC media as described (Guo et al, 2013b). Suspension-based differentiations were carried out as follows. Briefly, confluent cultures were dissociated into single cell suspension by incubation with TrypLE (Gibco). Cells were counted and each well of 6-well low-adherence plates were seeded with 5.5×10^6 cells in 5.5 ml hES media supplemented with 10 ng/ml Activin A (R&D systems) and 10 ng/ml HeregulinB1 (Peprotech). Plates were placed on an orbital shaker at 100 rpm to induce sphere formation, as described (Schulz et al, 2012). To induce definitive endoderm differentiation, aggregates were collected 24 hours later in a 50 ml falcon tube, allowed to settle by gravity, washed once with PBS and re-suspended in d1 media (RPMI (Gibco) containing 0.2% FBS, 1:5000 ITS (Gibco), 100 ng/ml Activin A, and 50 ng/ml WNT3a (R&D systems)). Clusters from 3 wells were combined into 2 wells at this point and distributed into fresh low-attachment plates in 5.5 ml d1 media. Media thereafter was changed daily, by removing either 4.5 ml media (at the end of d1) or 5.5 ml media the following days and adding back 5.5 ml fresh media until day 9. After day 9, only 5 ml of media was removed and added daily. […]

LTK, sequence (P29376 17-864, species assumed): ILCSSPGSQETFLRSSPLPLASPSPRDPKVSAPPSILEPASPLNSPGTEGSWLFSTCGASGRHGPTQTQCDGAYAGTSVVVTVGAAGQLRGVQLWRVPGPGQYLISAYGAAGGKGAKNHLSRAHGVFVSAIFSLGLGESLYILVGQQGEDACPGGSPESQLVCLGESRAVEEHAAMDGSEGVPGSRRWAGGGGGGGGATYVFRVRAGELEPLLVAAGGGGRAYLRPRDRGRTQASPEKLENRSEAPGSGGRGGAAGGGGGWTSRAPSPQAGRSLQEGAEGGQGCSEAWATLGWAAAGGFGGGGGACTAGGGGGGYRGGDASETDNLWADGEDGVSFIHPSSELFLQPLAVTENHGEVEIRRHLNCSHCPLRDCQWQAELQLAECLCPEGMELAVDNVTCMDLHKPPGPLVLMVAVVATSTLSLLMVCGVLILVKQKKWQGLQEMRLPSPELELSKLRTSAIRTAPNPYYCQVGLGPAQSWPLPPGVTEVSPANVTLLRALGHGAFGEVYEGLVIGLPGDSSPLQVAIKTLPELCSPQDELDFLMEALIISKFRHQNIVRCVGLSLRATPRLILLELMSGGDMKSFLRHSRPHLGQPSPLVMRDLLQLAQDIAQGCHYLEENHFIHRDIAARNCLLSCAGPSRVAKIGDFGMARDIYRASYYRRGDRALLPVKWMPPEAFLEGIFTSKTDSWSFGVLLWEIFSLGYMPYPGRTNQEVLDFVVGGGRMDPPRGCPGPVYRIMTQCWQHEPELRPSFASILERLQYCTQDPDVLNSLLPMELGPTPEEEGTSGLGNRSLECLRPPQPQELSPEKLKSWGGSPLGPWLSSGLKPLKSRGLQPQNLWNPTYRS
ALK, sequence (Q9UM73 19-1620, species assumed): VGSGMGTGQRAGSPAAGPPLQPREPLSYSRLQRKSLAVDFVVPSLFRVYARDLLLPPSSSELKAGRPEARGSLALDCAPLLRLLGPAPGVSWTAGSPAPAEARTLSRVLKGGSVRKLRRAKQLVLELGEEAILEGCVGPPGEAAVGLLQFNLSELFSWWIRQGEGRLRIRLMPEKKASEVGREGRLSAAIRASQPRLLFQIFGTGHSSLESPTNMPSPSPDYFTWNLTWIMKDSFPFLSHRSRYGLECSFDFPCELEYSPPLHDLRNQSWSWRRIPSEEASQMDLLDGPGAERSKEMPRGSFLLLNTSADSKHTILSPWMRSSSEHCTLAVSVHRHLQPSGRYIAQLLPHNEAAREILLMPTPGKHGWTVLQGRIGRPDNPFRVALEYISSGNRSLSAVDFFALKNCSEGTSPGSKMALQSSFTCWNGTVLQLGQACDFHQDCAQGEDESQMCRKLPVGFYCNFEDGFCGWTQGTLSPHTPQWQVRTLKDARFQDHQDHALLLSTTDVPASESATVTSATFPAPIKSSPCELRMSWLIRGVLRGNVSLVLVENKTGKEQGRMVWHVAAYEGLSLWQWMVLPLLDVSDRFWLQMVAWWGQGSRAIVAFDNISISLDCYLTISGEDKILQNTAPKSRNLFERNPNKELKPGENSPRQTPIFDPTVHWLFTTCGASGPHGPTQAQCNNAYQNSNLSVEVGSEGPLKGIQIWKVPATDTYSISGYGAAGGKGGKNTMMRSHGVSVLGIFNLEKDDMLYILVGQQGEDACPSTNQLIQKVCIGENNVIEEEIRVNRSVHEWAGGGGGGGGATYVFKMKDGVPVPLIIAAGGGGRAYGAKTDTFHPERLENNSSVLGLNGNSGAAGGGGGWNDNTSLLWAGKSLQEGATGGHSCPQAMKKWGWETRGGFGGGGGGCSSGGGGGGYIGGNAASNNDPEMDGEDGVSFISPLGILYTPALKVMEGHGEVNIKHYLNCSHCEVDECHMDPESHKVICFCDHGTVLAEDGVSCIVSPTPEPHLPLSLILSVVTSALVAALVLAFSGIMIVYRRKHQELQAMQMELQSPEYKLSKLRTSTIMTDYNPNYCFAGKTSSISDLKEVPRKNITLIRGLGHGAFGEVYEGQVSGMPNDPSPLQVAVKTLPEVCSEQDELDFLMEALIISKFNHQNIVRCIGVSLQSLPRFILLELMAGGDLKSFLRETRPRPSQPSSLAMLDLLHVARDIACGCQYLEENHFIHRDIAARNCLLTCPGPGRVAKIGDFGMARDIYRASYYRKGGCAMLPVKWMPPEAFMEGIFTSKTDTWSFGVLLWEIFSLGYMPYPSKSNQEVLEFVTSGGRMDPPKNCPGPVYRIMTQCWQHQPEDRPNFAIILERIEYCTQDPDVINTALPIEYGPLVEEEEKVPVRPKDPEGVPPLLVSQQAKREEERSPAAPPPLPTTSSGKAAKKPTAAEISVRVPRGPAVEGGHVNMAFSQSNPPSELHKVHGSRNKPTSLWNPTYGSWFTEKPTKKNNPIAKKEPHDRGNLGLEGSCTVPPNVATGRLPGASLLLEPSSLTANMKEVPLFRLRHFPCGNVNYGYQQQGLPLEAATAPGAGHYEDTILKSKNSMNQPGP

In the case of `CCc1nc(C(N)=O)c(Nc2ccc(N3CCC(N4CCN(C)CC4)CC3)c(OC)c2)nc1NC1CCOCC1` [ASP2215], the “inhibition of ALK” value (ALK) is listed as “over 50%”, the “inhibition of LTK” value (LTK) is listed as “over 50%” and the “inhibition of AXL” value (Axl) is listed as “over 50%”. For the same molecule, the “inhibition of FLT3” value (Flt3) was “over 50%”.

In the case of `O=C1O[C@H]([C@@H](O)CO)C(O)=C1O` [Vitamin C], the “percentage of C-peptide positive cells, individual supplementation” value [1] is reported as “effective in increasing”, the “number of C-peptide positive cells co-expressing PDX1 and NKX6.1” value [2] is reported as “increased” and the “expression of the INSULIN gene (mRNA)” value ([2]; day 21, compared to DMSO controls) is reported as “promoted expression”. The “NEUROG3 (NGN3) and NKX2.2 mRNA transcripts” value [3] was “did not significantly lower”.

B1: Noggin: the BMP inhibitor Noggin (protein, UniProt Q13253 28-232, looked up)
Noggin: QHYLHIRPAPSDNLPLVDLIEHPDPIFDPKEKDLNETLLRSLLGGHYDPGFMATSPPEDRPGGGGGAAGGAEDLAELDQLLRQRPSGAMPSEIKGLEFSEGLAQGKKQRLSKKLRRKLQMWLWSQTFCPVLYAWNDLGSRFWPRYVKVGSCFSKRSCSVPEGMVCKPSKSVHLTVLRWRCQRRGGQRCGWIPIQYPIISECKCSC
For B1, the “generation of PDX1+ cells over base media alone” value [4] was “did not result in enhanced generation” and the “NEUROG3 expression (endocrine differentiation)” value [5] was “noted only when spheres had been exposed to N”.
